Patent US11535643B2, “Macrolides with modified desosamine sugars and uses thereof” (President and Fellows of Harvard College, priority 2015, dated 2022)
≈ marks a conversion by molar mass, not a printed value. Like-named read-outs stand apart in the source and are kept apart here.

Key:
Type in all cases: cell-based
K. pneumoniae = test: Broth dilution MIC determination (CLSI) against K. pneumoniae strains; conditions: Klebsiella pneumoniae
In short: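 CLSI broth-dilution MICs across a panel including multidrug- and macrolide-resistant strains, with azithromycin and solithromycin as control compounds.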

H. influenzae = test: Broth dilution MIC determination (CLSI) against H. influenzae strains; conditions: Haemophilus influenzae
Excerpt: Minimum inhibitory concentrations (MICs) for macrolides described herein have been determined for unique strains of S. aureus, S. pneumoniae, S. pyogenes, E. faecalis, E. coli, A. baumannii, K. pneumoniae, P. aeruginosa, and H. influenzae, including several multidrug-resistant strains, with a special focus on macrolide resistant mechanisms. Azithromycin and solithromycin were included as control compounds. CLSI standard procedures for broth dilution MIC determination were used. Data for exemplary compounds described herein is shown in Tables M1-M7 and in Tables N1-N4.

E. coli = test: Broth dilution MIC determination (CLSI) against E. coli strains; conditions: Escherichia coli
In short: (§1)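 CLSI broth dilution MIC; panel of unique strains incl. multidrug-resistant ones, focus on macrolide-resistance mechanisms; azithromycin, solithromycin as controls.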

S. aureus = test: Broth dilution MIC determination (CLSI) against S. aureus strains; conditions: Staphylococcus aureus
In short: as §1

E. faecalis = test: Broth dilution MIC determination (CLSI) against E. faecalis strains; conditions: Enterococcus faecalis
In short: as §1

A. baumannii = test: Broth dilution MIC determination (CLSI) against A. baumannii strains; conditions: Acinetobacter baumannii
In short: as §1

P. aeruginosa = test: Broth dilution MIC determination (CLSI) against P. aeruginosa strains
In short: as §1

S. pyogenes = test: Broth dilution MIC determination (CLSI) against S. pyogenes strains; conditions: Streptococcus pyogenes
In short: as §1

S. pneumoniae = test: Broth dilution MIC determination (CLSI) against S. pneumoniae strains; conditions: Streptococcus pneumoniae
In short: as §1

[1] = ATCC25922, ATCC25922, read-out: MIC E. coli ATCC25922
[2] = read-out: MIC E. coli NDM-1, NDM-1
[3] = read-out: MIC S. aureus erm A genotype
[4] = ATCC49619, ATCC49619, read-out: MIC S. pneumoniae ATCC49619
[5] = read-out: MIC S. pneumoniae mef A genotype, mef A genotype
[6] = read-out: MIC S. pneumoniae mef A genotype, mef A genotype, first of two such columns (c3)
[7] = ATCC10031, ATCC10031, read-out: MIC K. pneumoniae ATCC10031
[8] = KPC-2, read-out: MIC K. pneumoniae KPC-2
[9] = ATCC49247, ATCC49247, read-out: MIC H. influenzae ATCC49247
[10] = erythro > 4, azithro 1, read-out: MIC H. influenzae erythro > 4, azithro 1
[11] = ATCC29213, ATCC29213, read-out: MIC S. aureus ATCC29213
[12] = MRSA / USA100, MRSA: USA100, read-out: MIC S. aureus MRSA: USA100
[13] = MRSA / USA300, MRSA: USA300, read-out: MIC S. aureus MRSA: USA300
[14] = USA600, USA600, GISA, read-out: MIC S. aureus USA600, GISA
[15] = ATCC29212, ATCC29212, read-out: MIC E. faecalis ATCC29212
[16] = Vancomycin-resistant, read-out: MIC E. faecalis Vancomycin-resistant
[17] = ATCC19606, ATCC19606, read-out: MIC A. baumannii ATCC19606
[18] = imipenem-resistant, read-out: MIC A. baumannii imipenem-resistant
[19] = Pseudomonas aeruginosa, ATCC27853; read-out: MIC P. aeruginosa ATCC27853
[20] = ATCC19615, ATCC19615, read-out: MIC S. pyogenes ATCC19615
[21] = macrolide-resistant, read-out: MIC S. pyogenes macrolide-resistant
[22] = erm B + mef A genotype, read-out: MIC S. pneumoniae erm B + mef A genotype
[23] = erm B + tet(M, O) genotype, read-out: MIC S. pneumoniae erm B + tet(M, O) genotype

SMILES	MIC (E. coli; [1]) [µg/mL]	MIC (E. coli; [2]) [µg/mL]	MIC (S. aureus; [3]) [µg/mL]	MIC (S. pneumoniae; [4]) [µg/mL]	MIC (S. pneumoniae; [5]) [µg/mL]	MIC (S. pneumoniae; [6]) [µg/mL]	MIC (K. pneumoniae; [7]) [µg/mL]	MIC (K. pneumoniae; [8]) [µg/mL]	MIC (H. influenzae; [9]) [µg/mL]	MIC (H. influenzae; [10]) [µg/mL]	MIC (S. aureus; [11]) [µg/mL]	MIC (S. aureus; [12]) [µg/mL]	MIC (S. aureus; [13]) [µg/mL]	MIC (S. aureus; [14]) [µg/mL]	MIC (E. faecalis; [15]) [µg/mL]	MIC (E. faecalis; [16]) [µg/mL]	MIC (A. baumannii; [17]) [µg/mL]	MIC (A. baumannii; [18]) [µg/mL]	MIC (P. aeruginosa; [19]) [µg/mL]	MIC (S. pyogenes; [20]) [µg/mL]	other results
CC[C@H]1OC(=O)[C@H](C)C(=O)[C@H](C)[C@@H](O[C@@H]2OC(CNC=N)CC(N(C)C)C2O)[C@](C)(OC)C[C@@H](C)CN[C@H](C)[C@H]2N(CCCCn3cc(-c4cccc(N)c4)nn3)C(=O)O[C@]12C (stereo partly drawn) [FSM-21861]	> 32	> 32	> 32	0.5 (≈ 0.575 µM)	8 (≈ 9.19 µM)	4 (≈ 4.6 µM)															MIC (K. pneumoniae; ATCC10031, read-out: MIC K. pneumoniae ATCC10031): 16 µg/mL (≈ 18.4 µM); MIC (K. pneumoniae; read-out: MIC K. pneumoniae KPC-2): > 32 µg/mL; MIC (H. influenzae; ATCC49247, read-out: MIC H. influenzae ATCC49247): 32 µg/mL (≈ 36.8 µM); MIC (H. influenzae; read-out: MIC H. influenzae erythro > 4, azithro 1): 32 µg/mL (≈ 36.8 µM); MIC (S. aureus; ATCC29213, read-out: MIC S. aureus ATCC29213): > 32 µg/mL; MIC (S. aureus; MRSA / USA100, read-out: MIC S. aureus MRSA: USA100): > 32 µg/mL; MIC (S. aureus; MRSA / USA300, read-out: MIC S. aureus MRSA: USA300): > 32 µg/mL; MIC (S. aureus; USA600, read-out: MIC S. aureus USA600, GISA): > 32 µg/mL; MIC (E. faecalis; ATCC29212, read-out: MIC E. faecalis ATCC29212): 4 µg/mL (≈ 4.6 µM); MIC (E. faecalis; read-out: MIC E. faecalis Vancomycin-resistant): > 32 µg/mL; MIC (A. baumannii; ATCC19606, read-out: MIC A. baumannii ATCC19606): > 32 µg/mL; MIC (A. baumannii; read-out: MIC A. baumannii imipenem-resistant): > 32 µg/mL; MIC (P. aeruginosa; Pseudomonas aeruginosa, ATCC27853, read-out: MIC P. aeruginosa ATCC27853): > 32 µg/mL; MIC (S. pyogenes; ATCC19615, read-out: MIC S. pyogenes ATCC19615): 0.5 µg/mL (≈ 0.575 µM); MIC (S. pyogenes; read-out: MIC S. pyogenes macrolide-resistant): 8 µg/mL (≈ 9.19 µM); MIC (S. pneumoniae; read-out: MIC S. pneumoniae erm B + mef A genotype, erm B + mef A genotype): 32 µg/mL; MIC (S. pneumoniae; read-out: MIC S. pneumoniae erm B + tet(M, O) genotype, erm B + tet(M, O) genotype): 0.25 µg/mL
CC[C@H]1OC(=O)[C@H](C)C(=O)[C@H](C)[C@@H](O[C@@H]2OC(CNS(=O)(=O)c3cccnc3)CC(N(C)C)C2O)[C@](C)(OC)C[C@@H](C)CN[C@H](C)[C@H]2N(CCCCn3cc(-c4cccc(N)c4)nn3)C(=O)O[C@]12C (stereo partly drawn) [FSM-21876]	32 (≈ 32.5 µM)	> 32	> 32	0.125 (≈ 0.127 µM)	16 (≈ 16.3 µM)	4 (≈ 4.06 µM)	16 (≈ 16.3 µM)	32 (≈ 32.5 µM)	4 (≈ 4.06 µM)	16 (≈ 16.3 µM)	16 (≈ 16.3 µM)	> 32	> 32	> 32	2 (≈ 2.03 µM)	> 32	> 32	32 (≈ 32.5 µM)	> 32	0.0625 (≈ 0.0635 µM)	MIC (S. pyogenes; [21]): 2 µg/mL (≈ 2.03 µM); MIC (S. pneumoniae; [22]): 8 µg/mL; MIC (S. pneumoniae; [23]): 0.0313 µg/mL
CC[C@H]1OC(=O)[C@H](C)C(=O)[C@H](C)[C@@H](O[C@@H]2OC(CN(CCN)CCN)CC(N(C)C)C2O)[C@](C)(OC)C[C@@H](C)CN[C@H](C)[C@H]2N(CCCCn3cc(-c4cccc(N)c4)nn3)C(=O)O[C@]12C (stereo partly drawn) [FSM-21877]	> 32	32 (≈ 34.4 µM)	> 32	1 (≈ 1.08 µM)	16 (≈ 17.2 µM)	8 (≈ 8.61 µM)	16 (≈ 17.2 µM)	32 (≈ 34.4 µM)	32 (≈ 34.4 µM)	32 (≈ 34.4 µM)	> 32	> 32	> 32	> 32	8 (≈ 8.61 µM)	> 32	> 32	> 32	> 32	0.5 (≈ 0.538 µM)	MIC (S. pyogenes; [21]): 16 µg/mL (≈ 17.2 µM); MIC (S. pneumoniae; [22]): 32 µg/mL; MIC (S. pneumoniae; [23]): 0.5 µg/mL
CC[C@H]1OC(=O)[C@H](C)C(=O)[C@H](C)[C@@H](O[C@@H]2OC(CNC(=O)CN)CC(N(C)C)C2O)[C@](C)(OC)C[C@@H](C)CN[C@H](C)[C@H]2N(CCCCn3cc(-c4cccc(N)c4)nn3)C(=O)O[C@]12C (stereo partly drawn) [FSM-21878]	> 32	> 32	> 32	< 0.0313	8 (≈ 8.89 µM)	0.5 (≈ 0.555 µM)	16 (≈ 17.8 µM)	> 32	> 32	32 (≈ 35.6 µM)	32 (≈ 35.6 µM)	> 32	> 32	> 32	16 (≈ 17.8 µM)	> 32	> 32	> 32	> 32	< 0.0313	MIC (S. pyogenes; [21]): 4 µg/mL (≈ 4.44 µM); MIC (S. pneumoniae; [22]): 4 µg/mL; MIC (S. pneumoniae; [23]): < 0.0313 µg/mL
CC[C@H]1OC(=O)[C@H](C)C(=O)[C@H](C)[C@@H](O[C@@H]2OC(CNC(=O)CNC(C)(C)C)CC(N(C)C)C2O)[C@](C)(OC)C[C@@H](C)CN[C@H](C)[C@H]2N(CCCCn3cc(-c4cccc(N)c4)nn3)C(=O)O[C@]12C (stereo partly drawn) [FSM-21879]	32 (≈ 33.5 µM)	32 (≈ 33.5 µM)	> 32	< 0.0313	4 (≈ 4.18 µM)	0.25 (≈ 0.261 µM)	8 (≈ 8.37 µM)	> 32	16 (≈ 16.7 µM)	8 (≈ 8.37 µM)	32 (≈ 33.5 µM)	> 32	> 32	> 32	16 (≈ 16.7 µM)	> 32	> 32	> 32	> 32	< 0.0313	MIC (S. pyogenes; [21]): 2 µg/mL (≈ 2.09 µM); MIC (S. pneumoniae; [22]): 1 µg/mL; MIC (S. pneumoniae; [23]): < 0.0313 µg/mL
CC[C@H]1OC(=O)[C@H](C)C(=O)[C@H](C)[C@@H](O[C@@H]2OC(CNC(=O)c3ccccc3)CC(N(C)C)C2O)[C@](C)(OC)C[C@@H](C)CN[C@H](C)[C@H]2N(CCCCn3cc(-c4cccc(N)c4)nn3)C(=O)O[C@]12C (stereo partly drawn) [FSM-21880]	16 (≈ 16.9 µM)	32 (≈ 33.8 µM)	> 32	< 0.0313	2 (≈ 2.11 µM)	0.0625 (≈ 0.066 µM)	8 (≈ 8.45 µM)	> 32	4 (≈ 4.22 µM)	4 (≈ 4.22 µM)	32 (≈ 33.8 µM)	> 32	> 32	> 32	4 (≈ 4.22 µM)	> 32	> 32	32 (≈ 33.8 µM)	> 32	< 0.0313	MIC (S. pyogenes; [21]): 1 µg/mL (≈ 1.06 µM); MIC (S. pneumoniae; [22]): 1 µg/mL; MIC (S. pneumoniae; [23]): < 0.0313 µg/mL
